Results: the NIST ThermoML archive (doi:10.1016/j.jct.2018.02.022)

Assay: xn = mol fraction of the nth substance listed
Settings: 293.15 K, 92.3 kPa, Liquid; for viscosity: Concentric cylinders viscometry; for speed of sound: Frequency=3 MHz, Single path-length method; for mass density: Vibrating tube method

OCCO [1,2-ethanediol] + O
Settings	mass density [kg/m3]	speed of sound [m/s]	viscosity [mPa·s]
x1 = 0.0101	1002.83	1498.9	–
x1 = 0.0201	1006.96	1514.6	–
x1 = 0.0302	1011.02	1529.7	–
x1 = 0.0407	1015.07	1544.6	–
x1 = 0.0494	1018.4	–	1.541
x1 = 0.0506	1018.75	1558.1	–
x1 = 0.0605	1022.31	1570.8	–
x1 = 0.0704	1025.78	1583.2	–
x1 = 0.0801	1029.04	1594	–
x1 = 0.0905	1032.34	1605.6	–
x1 = 0.0986	1034.8	–	2.078
x1 = 0.0997	1035.3	1614.8	–
x1 = 0.1483	1048.46	–	2.699
x1 = 0.1493	1048.74	1656.2	–
x1 = 0.1985	1059.45	1684.5	–
x1 = 0.2072	1061.51	–	3.517
x1 = 0.2466	1068.68	–	4.104
x1 = 0.2487	1069.2	1702.1	–
x1 = 0.298	1076.5	–	4.94
x1 = 0.2998	1076.8	1712.9	–
x1 = 0.3318	1080.9	1716.6	–
x1 = 0.3399	1081.8	–	5.663
x1 = 0.3921	1087.31	–	6.621
x1 = 0.3981	1087.84	1719.4	–
x1 = 0.4446	1091.88	–	7.638
x1 = 0.4521	1092.39	1718.6	–
x1 = 0.4934	1095.4	1716.1	–
x1 = 0.5007	–	–	8.782
x1 = 0.5485	1098.81	–	9.81
x1 = 0.552	1099	1711.5	–
x1 = 0.5846	1100.79	1708.3	–
x1 = 0.6004	1101.51	–	10.95
x1 = 0.6451	1103.53	–	11.97
x1 = 0.6481	1103.65	1702.1	–
x1 = 0.6773	1104.88	1699	–
x1 = 0.7012	1105.75	–	13.33
x1 = 0.7421	1107.16	1692.2	–
x1 = 0.7435	1107.22	–	14.35
x1 = 0.7811	1108.41	1688	–
x1 = 0.7907	1108.69	–	15.51
x1 = 0.8497	–	1681	–
x1 = 0.8505	–	–	16.94
x1 = 0.89	1111.29	–	17.91
x1 = 0.9002	1111.55	1676	–
x1 = 0.9059	1111.66	1675.5	–
x1 = 0.912	1111.78	1675	–
x1 = 0.9299	1112.18	1673.3	–
x1 = 0.9413	1112.43	1672.2	–
x1 = 0.9495	1112.62	1671.4	–
x1 = 0.9532	1112.69	–	19.48
x1 = 0.9546	1112.73	1671	–
x1 = 0.9681	1112.99	1669.9	–
x1 = 0.9789	1113.19	1669	–
x1 = 0.9893	–	1667.9	–
x1 = 1	–	1666.5	20.61
